{
  "source": "ChEMBL document CHEMBL1201862",
  "about": "“PubChem BioAssay data set” (2004)",
  "key": {"[1]": {"tested_on": "Streptococcus sp. 'group A'", "assay": "growth inhibition of control SK(-) GAS strain, dose response, counter-screen for streptokinase expression inhibitor project, luminescence, kanamycin, BacTiterGlo, confirmation (AID 1900)", "assay_type": "functional, organism-based"}, "[2]": {"assay": "Luminescence Cell-Based Secondary HTS screen to identify cytotoxic compounds of NIH3T3 cells. [Related pubchem assays: 1885, 1968 ]", "assay_type": "functional"}, "[3]": {"assay": "HepG2 cell cytotoxicity, dose response, cytotoxicity control for non-replicating M. tuberculosis project (AID 489018)", "assay_type": "functional", "conditions": "Mycobacterium tuberculosis"}, "[4]": {"assay": "A375 melanoma cell viability loss, dose response, counter-screen for MITF inhibitor project, CellTiter-Glo luminescence, dry powder, set 4 (AID 624364);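 further: A375 melanoma cells are MITF independent so this is a counter screen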", "assay_type": "functional, cell-based", "conditions": "A-375"}, "[5]": {"biological_target": "T1, Sphingosine 1-phosphate receptor 4 (Homo sapiens, UniProt O95977)", "T1 sequence (O95977 whole entry)": "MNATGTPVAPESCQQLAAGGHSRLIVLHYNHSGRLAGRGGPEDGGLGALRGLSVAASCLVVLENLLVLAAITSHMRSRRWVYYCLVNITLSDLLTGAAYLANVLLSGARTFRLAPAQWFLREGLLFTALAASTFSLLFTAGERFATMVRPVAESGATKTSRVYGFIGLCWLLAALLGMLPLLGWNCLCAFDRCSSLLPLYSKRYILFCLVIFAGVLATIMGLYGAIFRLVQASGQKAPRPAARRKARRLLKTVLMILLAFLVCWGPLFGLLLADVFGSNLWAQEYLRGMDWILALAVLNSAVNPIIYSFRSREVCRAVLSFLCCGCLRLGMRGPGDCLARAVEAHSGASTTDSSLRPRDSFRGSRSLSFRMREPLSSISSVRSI", "assay": "Fluorescence dose response cell-based high throughput screening assay for antagonists of the Sphingosine 1-Phosphate Receptor 4 (S1P4). [Related pubchem assays: 1524 (Confirmation in triplicates.), 1510 (Primary screen.)]", "assay_type": "functional"}, "[6]": {"assay": "cytotoxicity in HEK-293T cells, dose response, cytotoxicity control for TCR NF-kB inhibitor project, luminescence, T-cell screen hits (AID 489026);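 further: cells exposed to compound about 14 hours before the viability readout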", "assay_type": "functional, cell-based"}, "[7]": {"biological_target": "T2, RNA-binding protein pos-1 (Caenorhabditis elegans, UniProt G5EF15)", "T2 sequence (G5EF15 whole entry)": "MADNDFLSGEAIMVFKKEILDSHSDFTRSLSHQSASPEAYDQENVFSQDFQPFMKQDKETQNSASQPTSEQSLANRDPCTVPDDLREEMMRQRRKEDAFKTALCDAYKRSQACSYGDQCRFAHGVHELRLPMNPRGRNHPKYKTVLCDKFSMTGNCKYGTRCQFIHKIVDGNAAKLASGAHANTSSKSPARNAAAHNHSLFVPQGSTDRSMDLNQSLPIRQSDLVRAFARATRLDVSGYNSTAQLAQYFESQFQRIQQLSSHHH", "assay": "inhibitors of POS-1/mex-3 RNA binding, dose response, biochemical, fluorescence polarization (AID 1964);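 further: purified POS-1 fused to maltose binding protein made in E. coli; potency of compounds blocking POS-1 binding to fluorescent RNA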"}, "[8]": {"biological_target": "T3, Neuropeptide Y receptor type 1 (Homo sapiens, UniProt P25929)", "T3 sequence (P25929 whole entry)": "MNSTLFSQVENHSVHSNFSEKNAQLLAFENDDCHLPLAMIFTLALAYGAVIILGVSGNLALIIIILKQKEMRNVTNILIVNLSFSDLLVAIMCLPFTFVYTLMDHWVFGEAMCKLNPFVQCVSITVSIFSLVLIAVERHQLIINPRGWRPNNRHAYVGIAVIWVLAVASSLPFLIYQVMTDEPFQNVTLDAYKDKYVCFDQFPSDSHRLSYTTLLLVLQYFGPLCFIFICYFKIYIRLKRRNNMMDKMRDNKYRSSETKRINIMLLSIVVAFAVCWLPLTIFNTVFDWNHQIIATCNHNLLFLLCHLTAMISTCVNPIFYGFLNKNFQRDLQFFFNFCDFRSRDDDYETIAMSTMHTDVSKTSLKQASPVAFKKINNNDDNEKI", "assay": "Fluorescence-based counterscreen for agonists of NPY-Y2: cell-based high-throughput dose response assay for agonists of NPY-Y1.", "assay_type": "functional"}, "[9]": {"biological_target": "T4, Protein skinhead-1 (Caenorhabditis elegans, UniProt P34707)", "T4 sequence (P34707 whole entry)": "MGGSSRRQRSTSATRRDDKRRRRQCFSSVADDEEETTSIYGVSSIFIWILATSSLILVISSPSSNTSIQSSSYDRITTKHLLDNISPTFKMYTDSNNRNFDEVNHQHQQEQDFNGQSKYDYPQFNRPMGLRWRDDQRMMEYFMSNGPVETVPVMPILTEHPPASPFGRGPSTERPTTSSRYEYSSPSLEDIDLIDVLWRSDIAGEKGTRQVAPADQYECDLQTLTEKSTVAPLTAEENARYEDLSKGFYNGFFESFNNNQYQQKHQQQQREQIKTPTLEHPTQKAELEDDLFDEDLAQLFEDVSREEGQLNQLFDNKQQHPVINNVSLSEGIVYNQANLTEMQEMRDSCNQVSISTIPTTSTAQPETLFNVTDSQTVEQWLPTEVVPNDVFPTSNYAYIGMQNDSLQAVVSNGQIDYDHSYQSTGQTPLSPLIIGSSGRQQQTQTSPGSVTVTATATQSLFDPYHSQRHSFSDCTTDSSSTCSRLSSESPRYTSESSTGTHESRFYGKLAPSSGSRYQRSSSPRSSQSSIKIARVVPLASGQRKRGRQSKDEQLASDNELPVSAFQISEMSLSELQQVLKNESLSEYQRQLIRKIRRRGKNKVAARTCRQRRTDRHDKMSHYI", "assay_type": "functional"}, "[10]": {"biological_target": "DNA (cytosine-5)-methyltransferase 1 (Homo sapiens, UniProt P26358)", "sequence (P26358 whole entry)": "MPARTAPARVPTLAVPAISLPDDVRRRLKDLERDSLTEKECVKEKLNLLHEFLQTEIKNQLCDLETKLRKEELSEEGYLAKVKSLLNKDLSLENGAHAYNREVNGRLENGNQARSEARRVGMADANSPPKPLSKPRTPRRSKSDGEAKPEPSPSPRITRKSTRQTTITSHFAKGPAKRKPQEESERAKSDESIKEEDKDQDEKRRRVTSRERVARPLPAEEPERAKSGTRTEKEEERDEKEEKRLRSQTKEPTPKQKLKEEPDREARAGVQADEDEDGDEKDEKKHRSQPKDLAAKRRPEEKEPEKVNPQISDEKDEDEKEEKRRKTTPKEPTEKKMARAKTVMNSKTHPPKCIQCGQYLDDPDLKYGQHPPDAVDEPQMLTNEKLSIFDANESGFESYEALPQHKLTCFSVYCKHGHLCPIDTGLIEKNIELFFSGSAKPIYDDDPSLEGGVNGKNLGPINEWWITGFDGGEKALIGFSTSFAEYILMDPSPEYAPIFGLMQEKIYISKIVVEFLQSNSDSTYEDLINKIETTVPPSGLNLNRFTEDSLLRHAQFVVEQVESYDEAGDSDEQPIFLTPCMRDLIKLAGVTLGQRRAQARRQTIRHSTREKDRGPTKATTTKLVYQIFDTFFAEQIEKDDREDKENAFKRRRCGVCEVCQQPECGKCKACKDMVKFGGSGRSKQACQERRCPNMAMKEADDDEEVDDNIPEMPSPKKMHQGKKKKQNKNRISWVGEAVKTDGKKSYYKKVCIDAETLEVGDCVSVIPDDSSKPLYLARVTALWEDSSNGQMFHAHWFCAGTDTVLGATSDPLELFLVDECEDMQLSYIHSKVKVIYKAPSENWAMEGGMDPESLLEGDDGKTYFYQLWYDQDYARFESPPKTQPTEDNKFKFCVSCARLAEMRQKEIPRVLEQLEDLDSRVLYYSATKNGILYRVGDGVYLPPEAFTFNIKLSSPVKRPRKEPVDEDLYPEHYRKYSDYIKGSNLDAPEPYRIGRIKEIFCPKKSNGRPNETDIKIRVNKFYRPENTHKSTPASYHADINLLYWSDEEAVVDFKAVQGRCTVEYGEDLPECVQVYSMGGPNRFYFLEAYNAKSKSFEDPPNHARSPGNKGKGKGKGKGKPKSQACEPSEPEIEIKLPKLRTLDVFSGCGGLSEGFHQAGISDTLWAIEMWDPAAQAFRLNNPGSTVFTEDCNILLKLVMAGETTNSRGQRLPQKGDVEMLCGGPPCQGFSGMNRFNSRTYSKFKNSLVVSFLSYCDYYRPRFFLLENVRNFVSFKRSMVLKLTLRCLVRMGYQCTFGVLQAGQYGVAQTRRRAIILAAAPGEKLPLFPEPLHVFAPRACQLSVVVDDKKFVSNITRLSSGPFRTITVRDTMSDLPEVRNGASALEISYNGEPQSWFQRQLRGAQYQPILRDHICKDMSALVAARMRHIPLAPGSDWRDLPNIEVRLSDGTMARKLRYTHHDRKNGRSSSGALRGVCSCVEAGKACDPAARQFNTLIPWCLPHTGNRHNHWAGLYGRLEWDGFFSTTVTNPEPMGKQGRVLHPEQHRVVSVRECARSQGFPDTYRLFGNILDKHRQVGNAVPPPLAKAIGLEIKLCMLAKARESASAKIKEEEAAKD", "assay": "DNMT1 methyltransferase inhibitors, confirmation, biochemical, fluorescent molecular beacon (AID 602386)", "assay_type": "functional"}},
  "note": "The source made the active and inactive calls.",
  "data": [
    {"smiles": "O=C(CNc1cccc2ccccc12)N/N=C/c1ccc([N+](=O)[O-])o1", "values": [
      {"measurement": "EC50", "setting": "[1]", "value": "0.901 µM (active)"},
      {"measurement": "EC50", "setting": "[2]", "value": "17.5 µM (active)"},
      {"measurement": "CC50", "setting": "[3]", "value": "17.5 µM (active)"},
      {"measurement": "AC50", "setting": "[4]", "value": "> 70 µM (inactive)"}
    ]},
    {"smiles": "Cc1ccc(NC(=O)C2=C(c3ccccc3)S(=O)(=O)CCS2(=O)=O)cc1", "values": [
      {"measurement": "IC50", "setting": "[5]", "value": "1.04 µM (active)"},
      {"measurement": "IC50", "setting": "[6]", "value": "> 80 µM (inactive)"}
    ]},
    {"smiles": "O=C(O)CSc1cc(NS(=O)(=O)c2ccc(Br)cc2)c2ccccc2c1O", "values": [
      {"measurement": "EC50", "setting": "[7]", "value": "20.7 µM (active)"}
    ]},
    {"smiles": "O=C(CC(O)(C(F)(F)F)C(F)(F)F)Nc1ccc(Cl)c(Cl)c1", "values": [
      {"measurement": "EC50", "setting": "[8]", "value": "16.5 µM (not active)"},
      {"measurement": "IC50", "setting": "[9]", "value": "19.6 µM (active)"}
    ]},
    {"smiles": "O=C1NC(=S)N/C1=C/c1cc2c(cc1[N+](=O)[O-])OCO2", "values": [
      {"measurement": "IC50", "setting": "[10]", "value": "3.85 µM (active)"}
    ]}
  ]
}
